System: subjects with major depressive disorder (MDD) who were inadequate responders to citalopram
Test: MADRS total score, Phase 2b add-on trial
Type: in vivo, human
Description: The Montgomery-Asberg Depression Rating Scale (abbreviated MADRS) is a ten-item diagnostic questionnaire which psychiatrists may use to measure the severity of depressive episodes in patients with mood disorders (Montgomery et al. 1979). It was designed in 1979 by British and Swedish researchers as an adjunct to the Hamilton Rating Scale for Depression (HAMD) which would be more sensitive to the changes brought on by antidepressants and other forms of treatment than the HAMD. There is, however, a high degree of statistical correlation between scores on the two measures. In more detail, a multi-center double-blind, randomized, placebo-controlled, parallel group, flexible dose titration study of TC-5214 as adjunctive therapy in subjects with major depressive disorder (MDD) who were inadequate responders to citalopram was conducted in centers in the US and India. The study consisted of a screening period, baseline/washout period, open-label phase, double-blind phase, and a follow-up visit. Subject participation in the study could continue for up to 16 weeks of treatment. Following a washout period of up to 28 days for other antidepressants, subjects with MDD and a MADRS total score >/=28 and a Clinical Global Impression-Severity (CGI-S) score >/=4 were enrolled on Day 1 into an open-label citalopram-only phase of the study. This phase lasted 8 weeks, with citalopram (CIT) dose increased from a once-daily dose of 20 mg (Day 1 through Week 4) to 40 mg (Week 4 through Week 8). A total of 579 subjects entered the open-label citalopram phase. At Week 8, subjects who tolerated 40 mg CIT, but whose MADRS score was reduced <50% from baseline and no lower than 17, and CGI-S≧4, were considered inadequate responders. These subjects (n=270) were randomized in a double-blind fashion to receive either placebo or TC-5214-23 as add-on therapy to continued CIT. The double-blind phase of the study also lasted 8 weeks (Week 8 to Week 16). Study drug, TC-5214-23 or placebo, was started at 2 mg daily (1 mg twice per day [BID] dosing), added on to continuing CIT (40 mg PO qd). After 2 weeks of treatment, the dose of TC-5214 could be increased to 4 mg (2 mg BID) or continued unchanged, with up-titration based upon good tolerability and inadequate therapeutic response. After a further 2 weeks, the dose of TC-5214 could be increased again to 8 mg (4 mg BID) if judged appropriate by the investigator, based upon good tolerability and inadequate therapeutic response. At any time during the double-blind phase of the study, placebo or TC-5214-23 could be reduced to the previous dose level following the emergence of unacceptable adverse events (AEs). […] At this follow-up, any signs or symptoms of relapse were evaluated. If a subject was prematurely discontinued from the study between Week 8 and Week 16 for any reason, the investigator was to make every effort to perform all evaluations as per protocol, assuming the subject had reached the end of the double-blind add-on treatment phase. These evaluations were to be made as soon as possible and within 2 weeks of discontinuation. […] There was no meaningful difference in results as a function of age, gender, site, or smoking status. With regard to efficacy endpoints, the following tables present efficacy used in the ITT (Intent-to-Treat) and PP (Per Protocol) populations unless otherwise specific. The primary inference was based upon Week 16 visit using the ITT population. Change from baseline was obtained by subtracting the baseline values from the individual on-treatment values. Change from Week 16 was obtained by subtracting the Week 16 values from the individual follow-up visit (Week 18/19) values. If either the baseline or Week 16 or on-treatment or follow-up value was missing, the change from baseline or Week 16 value was also set to missing. […]

[1] = ITT (N = 133), Double Blind Week 16
[2] = ITT (N = 133), Double Blind Week 18 (Follow-up)
[3] = ITT and PP populations, result in words
[4] = ITT population, Week 8 (double-blind baseline) to Week 16
[5] = ITT, Double Blind Week 18 LOCF (Follow-up), change from Week 16
[6] = PP (N = 113), Double Blind Week 16
[7] = PP (N = 113), Double Blind Week 18 (Follow-up)
[8] = PP, Double Blind Week 16 LOCF (change from Week 8)
[9] = PP, Double Blind Week 18 LOCF (Follow-up), change from Week 16

## CNC1(C)C2CCC(C2)C1(C)C (stereo in doubt) [TC-5214, (S)—N,2,3,3-tetramethylnorbornan-2-amine]
[1]
  MADRS reduction from baseline ≧50%: Subjects with Response (number): 89
  MADRS reduction from baseline ≧50%: Subjects with Response (percentage): (67%)
  MADRS reduction from baseline ≧50%: Subjects without Response (number): 44
  MADRS reduction from baseline ≧50%: Subjects without Response (percentage): (33%)
  MADRS ≦10: Subjects with Remission (number): 69
  MADRS ≦10: Subjects with Remission (percentage): (52%)
  MADRS ≦10: Subjects without Remission (number): 64
  MADRS ≦10: Subjects without Remission (percentage): (48%)
  MADRS ≦12: Subjects with Remission (number): 77
  MADRS ≦12: Subjects with Remission (percentage): (58%)
  MADRS ≦12: Subjects without Remission (number): 56
  MADRS ≦12: Subjects without Remission (percentage): (42%)
[2]
  MADRS reduction from baseline ≧50%: Subjects with Response (number): 94
  MADRS reduction from baseline ≧50%: Subjects with Response (percentage): (71%)
  MADRS reduction from baseline ≧50%: Subjects without Response (number): 39
  MADRS reduction from baseline ≧50%: Subjects without Response (percentage): (29%)
  MADRS ≦10: Subjects with Remission (number): 73
  MADRS ≦10: Subjects with Remission (percentage): (55%)
  MADRS ≦10: Subjects without Remission (number): 60
  MADRS ≦10: Subjects without Remission (percentage): (45%)
  MADRS ≦12: Subjects with Remission (number): 86
  MADRS ≦12: Subjects with Remission (percentage): (65%)
  MADRS ≦12: Subjects without Remission (number): 47
  MADRS ≦12: Subjects without Remission (percentage): (35%)
[3]
  MADRS remission (≦10 or ≦12) proportion compared with placebo: higher proportion of subjects meeting the remission criteria
  MADRS responders (reduction from baseline ≧50%) proportion compared with placebo: higher proportion of responders
  MADRS total score change from baseline compared with placebo: statistically significant decreases (improvements)
[4]
  MADRS Total Score: Adjusted Mean Change TC-5214—Placebo (SD): −7.54 (10.13)
  MADRS Total Score: Effect Size: 0.74
ITT, Double Blind Week 16 LOCF (change from Week 8)
  MADRS Mean Difference between TC-5214 and Placebo: 7.54
[5]
  MADRS Adjusted Mean change: −0.87
  MADRS Mean Difference between TC-5214 and Placebo: −0.54
ITT, Week 8 to Week 16 LOCF
  MADRS Difference vs Placebo + CIT: −7.45
ITT, change from Week 8 (double-blind baseline) to Week 16 LOCF, add-on to citalopram
  MADRS Adj. Mean change: −17.26
[6]
  MADRS reduction from baseline ≧50%: Subjects with Response (number): 84
  MADRS reduction from baseline ≧50%: Subjects with Response (percentage): (74%)
  MADRS reduction from baseline ≧50%: Subjects without Response (number): 29
  MADRS reduction from baseline ≧50%: Subjects without Response (percentage): (26%)
  MADRS ≦10: Subjects with Remission (number): 67
  MADRS ≦10: Subjects with Remission (percentage): (59%)
  MADRS ≦10: Subjects without Remission (number): 46
  MADRS ≦10: Subjects without Remission (percentage): (41%)
  MADRS ≦12: Subjects with Remission (number): 72
  MADRS ≦12: Subjects with Remission (percentage): (64%)
  MADRS ≦12: Subjects without Remission (number): 41
  MADRS ≦12: Subjects without Remission (percentage): (36%)
[7]
  MADRS reduction from baseline ≧50%: Subjects with Response (number): 89
  MADRS reduction from baseline ≧50%: Subjects with Response (percentage): (79%)
  MADRS reduction from baseline ≧50%: Subjects without Response (number): 24
  MADRS reduction from baseline ≧50%: Subjects without Response (percentage): (21%)
  MADRS ≦10: Subjects with Remission (number): 70
  MADRS ≦10: Subjects with Remission (percentage): (62%)
  MADRS ≦10: Subjects without Remission (number): 43
  MADRS ≦10: Subjects without Remission (percentage): (38%)
  MADRS ≦12: Subjects with Remission (number): 81
  MADRS ≦12: Subjects with Remission (percentage): (72%)
  MADRS ≦12: Subjects without Remission (number): 32
  MADRS ≦12: Subjects without Remission (percentage): (28%)
[8]
  MADRS Adjusted Mean change: −19.34
  MADRS Mean Difference between TC-5214 and Placebo: 7.97
[9]
  MADRS Adjusted Mean change: −1.10
  MADRS Mean Difference between TC-5214 and Placebo: −0.20
